Test results as given in patent US4902505A, “Chimeric peptides for neuropeptide delivery through the blood-brain barrier” (Alkermes, priority 1988, dated 1990).

Legend:
blood-brain barrier = settings: general statement, no test described; cited from earlier work
[1] = test system: isolated bovine brain microvessels; test: Radioreceptor assay (uptake) using isolated bovine brain microvessels; type: cell-based; settings: up to 60 minutes incubation at room temperature; FIG. 1
Description: Somatostatin was obtained from Peninsula Laboratories and tritiated by reductive methylation using ^3 H-sodium borohydride. […] The two compounds were coupled together using SPDP as described in Example 1. Bovine brain microvessels were isolated as described in Pardridge, et al., "Rapid Sequestration And Degradation Of Somatostatin Analogues By Isolated Brain Microvessels", (Journal of Neurochemistry, Vol. 44, No. 4, 1985, pp. 1178-1184).
^3 H-somatostatin was added to one set of microvessels for up to 60 minutes incubation at room temperature. In another set of incubations, the ^3 H-somatostatin-^125 I-insulin chimera was also added. […] The uptake of the free somatostatin likely represents nonspecific binding as described in the article mentioned above (Journal of Neurochemistry, Vol. 44, No. 4, 1985).
Previous studies have shown that the receptor-mediated endocytosis of peptides in the isolated brain microvessels is a reliable index of the in vivo blood-brain barrier receptor transport activity of peptides in vivo (see my previously-mentioned article in Endocrine Reviews, Vol. 7, No. 3, Aug. 1986).

Row | Compound | transport through the blood-brain barrier (blood-brain barrier) | change of uptake with time [1]
1 | C[C@H](N)C(=O)NCC(=O)N[C@H]1CSSC[C@@H](C(=O)O)NC(=O)[C@H](CO)NC(=O)[C@H]([C@@H](C)O)NC(=O)[C@H](Cc2ccccc2)NC(=O)[C@H]([C@@H](C)O)NC(=O)[C@H](CCCCN)NC(=O)[C@H](Cc2c[nH]c3ccccc23)NC(=O)[C@H](Cc2ccccc2)NC(=O)[C@H](Cc2ccccc2)NC(=O)[C@H](CC(N)=O)NC(=O)[C@H](CCCCN)NC1=O [somatostatin] | not transported | no increase in time
2 | cationized albumin: bovine serum albumin covalently coupled with hexamethylene-diamine | enters the brain rapidly | 
